Among the data in patent US7001910B1, “Thiazolidinedione derivatives as antidiabetic agents” (Vita-Invest S.A., priority 1999, dated 2006) are inhibition in vivo values, retold here.

The test system of experiment [1] is genetically diabetic C57 BL male db/db mice. Description: Plasma glucose reduction in genetically diabetic db/db mice after 5 days of oral treatment. Format: in vivo. The following applies: Mus musculus, 120 h, 5 consecutive days, plasma glucose reduction vs basal level before treatment; for inhibition in vivo at 1 mg/kg: 1 mg/kg p.o.; for inhibition in vivo at 10 mg/kg: 10 mg/kg p.o.; for inhibition in vivo at 5 mg/kg: 5 mg/kg p.o. Here is the method: The pharmacological effect of the compounds is assessed in genetically diabetic C57 BL male db/db 9–11 weeks old mice, as well as in control C57 BL db/+ animals of the same strain and age. […] In each experimental group, 8–10 animals are used, which are treated with different doses of the compounds: 1 mg/kg, 5 mg/kg, 10 mg/kg or 25 mg/kg orally during 5 consecutive days.
In the day 0 of the experiment, blood samples are collected in heparinized tubes by punction of the retroorbital vein. Plasma is separated and the levels of basal glucose and insulin are quantified.
After concluding the treatments, blood samples of each animal are collected again and plasmatic post-treatment glucose and insulin levels are quantified.
The determination of glucose is carried out by means of an enzymatic method that converts glucose into glucose 6-phosphate, a reaction coupled with the reduction of nicotinamide-dinucleotide phosphate (NADP) to NADPH by the action of glucose-6-P-dehydrogenase. The NADPH reduces the iodonitrotetrazolium, which is quantified spectrophotometrically. The absorbency at 520 nm is proportional to the concentration of glucose, ref: Randox GI, 2623 (Bergmeyer H. U., Bernt E., Schmidt F. H., Stork H. In Methods of Enzymatic Analysis, Academic Press: London and New York 1974, p. 1196).
The results are expressed as the reduction percent with regard to the basal levels determined before the beginning of the treatment.

The test system is the same in experiment [2]. The description is as above. Format: in vivo. The following applies: Mus musculus, 120 h, 100 mg/kg p.o., 5 consecutive days, plasma glucose reduction vs basal level before treatment.

Broadly, the inhibition in vivo is how much of the control response was suppressed.

In experiment [1], `CN(CCOc1ccc(CC2SC(=O)NC2=O)cc1)c1cc(Cl)nc(N)n1` (centres unmarked) [Example 3, 5-(4-{2-[(2-amino-6-chloropyrimidin-4-yl)-methyl-amino]-ethoxy}-benzyl)-thiazolidine-2,4-dione] returned an inhibition in vivo at 1 mg/kg of 47%. Same read-out and setting: the value for `COc1cc(N(C)CCOc2ccc(CC3SC(=O)NC3=O)cc2)nc(OC)n1` (centres unmarked) [Example 4, 5-(4-{2-{(2,6-Dimethoxypyrimidin-4-yl)-methyl-amino]-ethoxy}-benzyl)-thiazolidine-2,4-dione] was 53%.

With `CN(CCOc1ccc(CC2SC(=O)NC2=O)cc1)c1ncnc2nc[nH]c12` (centres unmarked) [Example 7, 5-(4-{2-[Methyl-(7H-purin-6-yl)-amino]-ethoxy}-benzyl)-thiazolidine-2,4-dione], in experiment [1], the inhibition in vivo at 10 mg/kg was 47%.

In experiment [1], `CN(CCOc1ccc(CC2SC(=O)NC2=O)cc1)c1ncnc2c1ncn2C1OC(CO)C(O)C1O` (centres unmarked) [Example 11] yielded an inhibition in vivo at 10 mg/kg of 30%. Still for that read-out and setting: then `CN(CCOc1ccc(CC2SC(=O)NC2=O)cc1)c1ncnc2c1ncn2C` (centres unmarked) [Example 12, 5-(4-{2-[Methyl-(9-methyl-9H-purin-6-yl)-amino]-ethoxy}-benzyl)-thiazolidine-2,4-dione], with 25%. Consider `CN(CCOc1ccc(CC2SC(=O)NC2=O)cc1)c1cc(Cl)ncn1` (centres unmarked) [Example 14, 5-(4-{2-[(6-chloropyrimidin-4-yl)-methylamino]-ethoxy}-benzyl)-thiazolidine-2,4-dione], for which the inhibition in vivo at 1 mg/kg in experiment [1] came to 51%. Same read-out and setting: the value for `COc1cc(N(C)CCOc2ccc(CC3SC(=O)NC3=O)cc2)ncn1` (centres unmarked) [Example 17, 5-(4-{2-[(6-Methoxypyrimidin-4-yl)-methylamino]-ethoxy}-benzyl)-thiazolidine-2,4-dione] was 48%. Regarding `CN(CCOc1ccc(CC2SC(=O)NC2=O)cc1)c1ccncn1` (centres unmarked) [Example 20, 5-{4-[2-(Methylpyrimidin-4-yl-amino)ethoxy]benzyl}-thiazolidine-2,4-dione], in experiment [1], the inhibition in vivo at 5 mg/kg is 21%. In experiment [1] (25 mg/kg p.o.), `CN(C)c1cc(N(C)CCOc2ccc(CC3SC(=O)NC3=O)cc2)ncn1` (centres unmarked) [Example 21, 5-(4-{2-[(6-Dimethylaminopyrimidin-4-yl)-methylamino]-ethoxy}-benzyl)-thiazolidine-2,4-dione] gave an inhibition in vivo at 25 mg/kg of 36%.

Take `CN(CCOc1ccc(CC2SC(=O)NC2=O)cc1)c1cc(O)ncn1` (centres unmarked) [Example 22, 5-(4-{2-[(6-Hydroxypyrimidin-4-yl)-methylamino]-ethoxy}-benzyl)-thiazolidine-2,4-dione]: in experiment [1], the inhibition in vivo at 5 mg/kg worked out at 22%. For the compound `Cc1c(C)c2c(c(C)c1O)CCC(C)(COc1ccc(CC3SC(=O)NC3=O)cc1)O2` (centres unmarked) [Troglitazone], testing at 100 mg/kg in experiment [2] gave an inhibition in vivo of 38%.
